Measured values as given in patent US9011882B2, “Dimethylarginine dimethylaminohydrolase inhibitors and methods of use thereof” (The Board of Trustees of the Leland Stanford Junior …, priority 2012, dated 2015).
pIC50: −log10 of the molar value.

Key:
human DDAH1 = human DDAH1 (Homo sapiens (Human), UniProt O94760); test: Fluorimetric CPM assay of DDAH activity (SMTC substrate); format: biochemical; settings: fresh powders from vendors, vs vehicle
Method: The activity of human DDAH1 was quantified using fluorimetric assay by incubating the enzyme with an artificial substrate S-methyl-thiocitrulline (SMTC). DDAH metabolizes SMTC into L-citrulline and methanethiol (CH3—SH). The thiol released from the reaction can be monitored fluorimetrically by adding 7-Diethylamino-3-(4-maleimidophenyl)-4-methylcoumarin (CPM).
The activity of human DDAH1 was quantified using fluorimetric assay by incubating the enzyme with an artificial substrate S-methyl-thiocitrulline (SMTC), as described in Example 1. DDAH metabolizes SMTC into L-citrulline and methanethiol (CH3—SH). The thiol released from the reaction can be monitored fluorimetrically by adding 7-Diethylamino-3-(4-maleimidophenyl)-4-methylcoumarin (CPM).
For the secondary assay, a fluorimetric assay that uses SMTC as a substrate was adapted. DDAH metabolizes SMTC into L-citrulline and methanethiol (CH3—SH). In brief, DDAH (30 nM final concentration) was mixed with SMTC (100 μM final concentration), CPM (50 μM final concentration) and screening buffer (containing a final concentration of 0.01% Triton-X100 and 1 mM EDTA). The reaction mix was added to black 384-well plates to validate primary hits that modulate DDAH activity. The release of CH3—SH was monitored fluorimetrically by adding 7-Diethylamino-3-(4-maleimidophenyl)-4-methylcoumarin (CPM) as described in Linsky (Linsky, T. & Fast, W. A continuous, fluorescent, high-throughput assay for human dimethylarginine dimethylaminohydrolase-1. J Biomol Screen 16, 1089-1097 (2011)).

[1] = test system: Lung fibroblasts from patients with IPF; test: Sircol collagen assay, TGF-β stimulated IPF lung fibroblasts; format: cell-based, human; settings: Omeprazole 50 or 100 μM; L-257 50 μM; A83-01 20 μM; 24 hours
Method: Cells were seeded at 4×10^4 cells/well in a 6-well plate (1.2 mL media per well) and incubated overnight at 37° C./5% CO2. The next day, the conditioned media was aspirated and the cells were rinsed with phosphate-buffered saline (PBS) prior to (fetal bovine) serum starving them for 2 hours followed by 22 hours low serum (0.1% fetal bovine serum; FBS) in order to synchronize them.
On day-3, the cells were stimulated with fully-supplemented media (containing 10% FBS) in the absence or presence of recombinant transforming growth factor-1 (TGF-β1) (at 10 ng/mL final conc) in the presence of a DDAH inhibitor (DDAHi; the proton pump inhibitor (PPI) lansoprazole at a final concentration of 20 μM) or vehicle for 24 hours.
The acid-soluble collagen content in each well was determined in the conditioned media using the Sircol collagen assay (Accurate Chemical and Scientific Corp; CLRS 1000) following the recommended protocol.
The amount of collagen in each well was estimated from a standard curve and the collagen content in each sample was normalized to total cellular protein from the respective well and was expressed as μg collagen per milligram of protein.
Lung fibroblasts were isolated from patients diagnosed with IPF according to International Standards. Isolated fibroblasts were seeded at 6×10^4 and synchronized the following day.
The acid-soluble collagen content was determined using the Sircol collagen assay (Accurate Chemical and Scientific Corp; CLRS 1000) following the recommended protocol.

[2] = test system: Human lung epithelial cell line (A-549); test: BrdU Cell Proliferation Assay, human alveolar epithelial cells; format: cell-based; settings: FIG. 24
Method: Cells were seeded at 5×10^3 cells/well in a 96-well plate (200 μL media per well) & incubated overnight at 37° C./5% CO2. The next day, the conditioned media was aspirated and the cells were PBS-rinsed prior to (fetal bovine) serum starving them for 2 hours followed by 22 hours low serum (0.1% FBS) in order to synchronize them.
On day-3, 2 hours before the end of the 24 hours low serum period, DDAH inhibitors (Proton pump inhibitors; PPIs) were added in a 100 μL solution of 0.1% FBS DMEM. The following DDAH inhibitors were used: Lansoprazole; Esomeprazole; and Rabeprazole. A “vehicle only” sample served as a “no DDAH” control. In addition, Media only (blank control) without cells, and Cells only (background control) were included in the assay. Two hours later, 100 μL of DMEM containing 10% FBS was added to each well in order to serum-stimulate (for 24 hours) the cells and make the total well content to 200 μL. Four hours prior to the end of the 24 hrs, 20 μL of 1:500 diluted Bromodeoxyuridine (BrdU) (diluted in fully-supplemented DMEM) was added to all wells except the “Cells only” control wells.
The incorporation of BrdU into newly synthesized DNA by actively proliferating cells was detected immunochemically using an Antibody directed against BrdU using the recommended protocol and the BrdU Cell Proliferation Assay kit (Millipore; Cat #2750). […]

[3] = test system: mouse alveolar epithelial cell; test: BrdU Cell Proliferation Assay, mouse alveolar epithelial cells; format: cell-based; settings: mouse cell line, FIG. 25
From the text: A “vehicle only” sample served as a “no DDAH” control.

DDAH = DDAH (Homo sapiens (Human), UniProt O94760); test: Dilution assay for reversibility of DDAH inhibition (fluorometric); format: biochemical
Sequence of DDAH (O94760 whole entry): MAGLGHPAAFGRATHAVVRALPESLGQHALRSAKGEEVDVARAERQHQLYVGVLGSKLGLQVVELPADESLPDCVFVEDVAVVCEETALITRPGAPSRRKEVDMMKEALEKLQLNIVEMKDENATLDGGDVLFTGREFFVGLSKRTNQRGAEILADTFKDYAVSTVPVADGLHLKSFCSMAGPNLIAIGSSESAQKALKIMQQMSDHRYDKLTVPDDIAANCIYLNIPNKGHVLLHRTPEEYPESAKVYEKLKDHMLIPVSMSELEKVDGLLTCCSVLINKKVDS
Method: In order to understand the mechanism by which PPIs inhibit DDAH activity and to determine whether the inhibition mechanism is reversible, a dilution study was conducted, in which DDAH (at a 100-fold excess to the final concentration used) was pre-incubated with excess PPI (100×, 10× or 1× the IC50 value) and then inhibition of enzymatic activity was determined using a fluorometric assay as described above. For a reversible inhibitor that binds to a single site of an enzyme (1:1 stoichiometry), it is anticipated that inhibition can be saturated.

[4] = test system: human lung epithelial cells (A-549); test: Intracellular ADMA by ELISA in lung epithelial cells; format: cell-based; settings: Omeprazole at 10, 20, 50 or 100 μM, 24 hours
Method: After 24 hours, ADMA was measured by enzyme-linked immunosorbent assay (ELISA). […] Data are Mean±SEM from duplicate experiments. *p<0.05 compared to vehicle (“Veh”).

[5] = test system: human alveolar epithelial cells (A-549); test: Nitric oxide production, total nitrite (NOx) by Griess reaction; format: cell-based; settings: 24 hours
Method: Total nitrite (NOx) was measured using Griess reaction. Data are Mean±SEM from duplicate experiments. *p<0.05.

[6] = test system: human alveolar epithelial cells (A-549); test: Apoptosis, Cell Death Detection ELISA, A23187-induced; format: cell-based; settings: 1 μM A23187, 24 hours
Method: Apoptosis as measured by mono- and oligo-nucleosome enrichment was determined using Cell Death Detection ELISA^PLUS (Roche). Histone-DNA complex (His-DNA CPx) was included as a control. […] Data shown are Mean+/-SEM from Duplicate Experiments. * p<0.05.

[7] = test system: human alveolar epithelial cells (A-549)
From the text: (§1) Cytotoxicity of PPIs. […] Mean+/−SEM from Duplicate Experiments. * p<0.05.

[8] = test system: mouse alveolar epithelial (MLE-12) cells
From the text: as §1

Sequence of human DDAH1 (O94760 whole entry): as above

In the case of `COc1ccc2[nH]c([S+]([O-])Cc3ncc(C)c(OC)c3C)nc2c1` (centres unmarked) [Omeprazole], the “inhibition of DDAH activity, CPM fluorometric validation” value (human DDAH1) was “inhibited DDAH activity significantly”, the “TGF-β induced collagen synthesis” value [1] was “reduced TGF-β induced collagen synthesis” and the “incorporation of BrdU” value [2] was “reduced incorporation of BrdU”. For the same molecule, the “incorporation of BrdU” value [3] was “reduced incorporation of BrdU”, the “reversibility of DDAH inhibition upon dilution” value (DDAH; pre-incubation with 100×, 10× or 1× the IC50 value) was “reversible inhibition of DDAH” and the pIC50 (DDAH; value given in FIG. 20 legend) was roughly 4.22. For the same molecule, the “intracellular ADMA” value [4] was “increase in intracellular ADMA”, the “levels of nitric oxide (total nitrite, NOx)” value [5] was “reduced the levels of nitric oxide” and the “level of apoptosis (mono- and oligo-nucleosome enrichment)” value [6] was “reduced the level of apoptosis”. The “concentration up to which not cytotoxic (LDH release)” value [7] was no less than 300 µM and the “concentration up to which cytotoxicity not observed (LDH release)” value [8] was no less than 300 µM.
